From patent US9884832B2 (priority 2011, dated 2018)

biological target: AM2 S31N (serine→asparagine mutation at residue 31 in the M2 protein) (Influenza A virus, UniProt P0DOF5, S31N); type: cell-based, influenza virus A/Udorn/72; details: not given

`FC(F)(F)c1cccc(-c2nc(CNC34CC5CC(CC(C5)C3)C4)no2)c1` [Example 125a, N-((5-(3-(trifluoromethyl)phenyl)-1,2,4-oxadiazol-3-yl)methyl)adamantan-1-amine] was tested. Which “S31N OOcyte Inhibition at 100 uM (%)” value did it give?
Its value is “A (key: (A)=31-95%; (B)=0-30%)”.

How did the “S31N OOcyte Inhibition at 100 uM (%)” value turn out when `c1coc(-c2nc(CNC34CC5CC(CC(C5)C3)C4)no2)c1` [Example 160a, N-((5-(furan-2-yl)-1,2,4-oxadiazol-3-yl)methyl)adamantan-1-amine] was run?
The value was “A (key: (A)=31-95%; (B)=0-30%)”.

`Cc1ccc(CNC23CC4CC(CC(C4)C2)C3)c(O)c1` [Example 51a] was tested. Which “S31N OOcyte Inhibition at 100 uM (%)” value did it give?
Its value is “A (key: (A)=31-95%; (B)=0-30%)”.

`c1csc(-c2nnc(CNC34CC5CC(CC(C5)C3)C4)o2)c1` [Example 147a, Adamantan-1-yl-(5-thiophen-2-yl-[1,3,4]oxadiazol-2-ylmethyl)-amine] was tested. Which “S31N OOcyte Inhibition at 100 uM (%)” value did it give?
Its value is “A (key: (A)=31-95%; (B)=0-30%)”.

For `Ic1ccc(CNC23CC4CC(CC(C4)C2)C3)s1` [Example 91a, N-((5-Iodothiophen-2-yl)methyl)adamantan-1-amine], which “S31N OOcyte Inhibition at 100 uM (%)” value is on record?
Its value is “A (key: (A)=31-95%; (B)=0-30%)”.

How did the “S31N OOcyte Inhibition at 100 uM (%)” value turn out when `FC(F)(F)c1cccc(-c2nc(CNC34CC5CC(CC(C5)C3)C4)no2)c1` [Example 130a, N-((5-(3-(trifluoromethyl)phenyl)-1,2,4-oxadiazol-3-yl)methyl)adamantan-1-amine] was run?
The value was “A (key: (A)=31-95%; (B)=0-30%)”.

How did the “S31N OOcyte Inhibition at 100 uM (%)” value turn out when `Nc1ncc(CNC23CC4CC(CC(C4)C2)C3)s1` [Example 93a, 5-((adamantan-1-ylamino)methyl)thiazol-2-amine] was run?
Its value is “B (key: (A)=31-95%; (B)=0-30%)”.

Which “S31N OOcyte Inhibition at 100 uM (%)” value does the source give for `c1cc(-c2ccc(CNC34CC5CC(CC(C5)C3)C4)cn2)cs1` [Example 59a, N-((6-(thiophen-3-yl)pyridin-3-yl)methyl)adamantan-1-amine] here?
Its value is “A (key: (A)=31-95%; (B)=0-30%)”.

For `Cc1ccc(CNC23CC4CC(CC(C4)C2)C3)cc1` [Example 8a, N-(4-Methylbenzyl)adamantan-1-amine], which “S31N OOcyte Inhibition at 100 uM (%)” value is on record?
The value was “B (key: (A)=31-95%; (B)=0-30%)”.

How did the “S31N OOcyte Inhibition at 100 uM (%)” value turn out when `COc1ccc(-c2nc(CNC34CC5CC(CC(C5)C3)C4)no2)cc1` [Example 126a, N-((5-(4-methoxyphenyl)-1,2,4-oxadiazol-3-yl)methyl)adamantan-1-amine] was run?
The value was “A (key: (A)=31-95%; (B)=0-30%)”.

How did the “S31N OOcyte Inhibition at 100 uM (%)” value turn out when `Oc1ccc(CNC23CC4CC(CC(O)(C4)C2)C3)c(O)c1` [Example 196a, 4-[(3-Hydroxy-adamantan-1-ylamino)-methyl]-benzene-1,3-diol] was run?
The value was “A (key: (A)=31-95%; (B)=0-30%)”.

`c1ccc(-c2nc(CNC34CC5CC(CC(C5)C3)C4)no2)cc1` [Example 131a, N-((5-phenyl-1,2,4-oxadiazol-3-yl)methyl)adamantan-1-amine] was tested. Which “S31N OOcyte Inhibition at 100 uM (%)” value did it give?
Its value is “A (key: (A)=31-95%; (B)=0-30%)”.

Which “S31N OOcyte Inhibition at 100 uM (%)” value does the source give for `CC(C)c1nc(CNC23CC4CC(CC(C4)C2)C3)no1` [Example 102a, N-((5-isopropyl-1,2,4-oxadiazol-3-yl)methyl)adamantan-1-amine] here?
The value was “A (key: (A)=31-95%; (B)=0-30%)”.

`CC(C)(C)c1ccc(-c2noc(CNC34CC5CC(CC(C5)C3)C4)n2)cc1` [Example 124a, N-((3-(4-(tert-butyl)phenyl)-1,2,4-oxadiazol-5-yl)methyl)adamantan-1-amine] was tested. Which “S31N OOcyte Inhibition at 100 uM (%)” value did it give?
Its value is “B (key: (A)=31-95%; (B)=0-30%)”.

How did the “S31N OOcyte Inhibition at 100 uM (%)” value turn out when `c1c[nH]c(CNC23CC4CC(CC(C4)C2)C3)c1` [Example 72a, Adamantan-1-yl-(1H-pyrrol-2-ylmethyl)-amine] was run?
The value was “B (key: (A)=31-95%; (B)=0-30%)”.

With `Cc1ccc(-c2cc(CNC34CC5CC(CC(C5)C3)C4)no2)cc1` [Example 120a, N-((5-(p-tolyl)isoxazol-3-yl)methyl)adamantan-1-amine] as the compound, how does the “S31N OOcyte Inhibition at 100 uM (%)” value read?
Its value is “A (key: (A)=31-95%; (B)=0-30%)”.

Which “S31N OOcyte Inhibition at 100 uM (%)” value does the source give for `FC(F)(F)c1ccc(-c2nc(CNC34CC5CC(CC(C5)C3)C4)no2)cc1` [Example 129a, N-((5-(4-(trifluoromethyl)phenyl)-1,2,4-oxadiazol-3-yl)methyl)adamantan-1-amine] here?
The value was “A (key: (A)=31-95%; (B)=0-30%)”.

How did the “S31N OOcyte Inhibition at 100 uM (%)” value turn out when `c1csc(-c2ccc(CNC34CC5CC(CC(C5)C3)C4)o2)c1` [Example 138a, Adamantan-1-yl-(5-thiophen-2-yl-furan-2-ylmethyl)-amine] was run?
Its value is “A (key: (A)=31-95%; (B)=0-30%)”.

Which “S31N OOcyte Inhibition at 100 uM (%)” value does the source give for `COc1ccc(-c2cc(CNC34CC5CC(CC(C5)C3)C4)on2)cc1` [Example 122a, N-((3-(4-methoxyphenyl)isoxazol-5-yl)methyl)adamantan-1-amine] here?
Its value is “A (key: (A)=31-95%; (B)=0-30%)”.

same assay, conditions: pH 5.5

`CC(C)Cc1nc(CNC23CC4CC(CC(C4)C2)C3)no1` [Example 22b, N-((5-isobutyl-1,2,4-oxadiazol-3-yl)methyl)adamantan-1-amine] was tested. Which “S31N OOcyte Inhibition at 100 uM (%)” value did it give?
The value was “A (key: (A)=31-95%; (B)=0-30%)”.

`Oc1cc(F)ccc1CNC12CC3CC(CC(C3)C1)C2` [Example 6b] was tested. Which “S31N OOcyte Inhibition at 100 uM (%)” value did it give?
Its value is “A (key: (A)=31-95%; (B)=0-30%)”.

`CSc1ccc(-c2cc(CNC34CC5CC(CC(C5)C3)C4)no2)cc1` [Example 37b, N-((5-(4-(methylthio)phenyl)isoxazol-3-yl)methyl)adamantan-1-amine] was tested. Which “S31N OOcyte Inhibition at 100 uM (%)” value did it give?
The value was “A (key: (A)=31-95%; (B)=0-30%)”.

`Clc1ccccc1-c1nc(CNC23CC4CC(CC(C4)C2)C3)no1` [Example 31b, N-((5-(2-chlorophenyl)-1,2,4-oxadiazol-3-yl)methyl)adamantan-1-amine] was tested. Which “S31N OOcyte Inhibition at 100 uM (%)” value did it give?
The value was “A (key: (A)=31-95%; (B)=0-30%)”.

How did the “S31N OOcyte Inhibition at 100 uM (%)” value turn out when `CSc1ccccc1-c1cc(CNC23CC4CC(CC(C4)C2)C3)no1` [Example 42b, N-((5-(2-(methylthio)phenyl)isoxazol-3-yl)methyl)adamantan-1-amine] was run?
Its value is “A (key: (A)=31-95%; (B)=0-30%)”.

Which “S31N OOcyte Inhibition at 100 uM (%)” value does the source give for `FC(F)(F)c1nnc(CNC23CC4CC(CC(C4)C2)C3)o1` [Example 14b, N-((5-(trifluoromethyl)-1,3,4-oxadiazol-2-yl)methyl)adamantan-1-amine] here?
Its value is “A (key: (A)=31-95%; (B)=0-30%)”.

Which “S31N OOcyte Inhibition at 100 uM (%)” value does the source give for `CCCc1cc(CNC23CC4CC(CC(C4)C2)C3)no1` [Example 26b, N-((5-propylisoxazol-3-yl)methyl)adamantan-1-amine] here?
The value was “A (key: (A)=31-95%; (B)=0-30%)”.

For `C1COC(c2nc(CNC34CC5CC(CC(C5)C3)C4)no2)C1` (stereo not drawn) [Example 21b, N-((5-(tetrahydrofuran-2-yl)-1,2,4-oxadiazol-3-yl)methyl)adamantan-1-amine], which “S31N OOcyte Inhibition at 100 uM (%)” value is on record?
The value was “A (key: (A)=31-95%; (B)=0-30%)”.

`Clc1ccc(CNC23CC4CC(CC(C4)C2)C3)nn1` [Example 70b, Adamantan-1-yl-(6-chloro-pyridazin-3-ylmethyl)-amine] was tested. Which “S31N OOcyte Inhibition at 100 uM (%)” value did it give?
The value was “B (key: (A)=31-95%; (B)=0-30%)”.

`COc1ncc(CNC23CC4CC(CC(C4)C2)C3)c(OC)n1` [Example 64b, N-((2,4-dimethoxypyrimidin-5-yl)methyl)adamantan-1-amine] was tested. Which “S31N OOcyte Inhibition at 100 uM (%)” value did it give?
Its value is “B (key: (A)=31-95%; (B)=0-30%)”.

How did the “S31N OOcyte Inhibition at 100 uM (%)” value turn out when `CSc1ccccc1-c1cnc(CNC23CC4CC(CC(C4)C2)C3)s1` [Example 76b, Adamantan-1-yl-[5-(2-methylsulfanyl-phenyl)-thiazol-2-ylmethyl]-amine] was run?
Its value is “A (key: (A)=31-95%; (B)=0-30%)”.

How did the “S31N OOcyte Inhibition at 100 uM (%)” value turn out when `Oc1cc(I)ccc1CNC12CC3CC(CC(C3)C1)C2` [Example 2b] was run?
Its value is “A (key: (A)=31-95%; (B)=0-30%)”.

Which “S31N OOcyte Inhibition at 100 uM (%)” value does the source give for `CSC(C)(C)Cc1cc(CNC23CC4CC(CC(C4)C2)C3)no1` [Example 46b, N-((5-(2-methyl-2-(methylthio)propyl)isoxazol-3-yl)methyl)adamantan-1-amine] here?
Its value is “A (key: (A)=31-95%; (B)=0-30%)”.

With `c1ccc(-c2cnc(CNC34CC5CC(CC(C5)C3)C4)[nH]2)cc1` [Example 53b, N-((5-phenyl-1H-imidazol-2-yl)methyl)adamantan-1-amine] as the compound, how does the “S31N OOcyte Inhibition at 100 uM (%)” value read?
The value was “A (key: (A)=31-95%; (B)=0-30%)”.

How did the “S31N OOcyte Inhibition at 100 uM (%)” value turn out when `Oc1cc(Cl)ccc1CNC12CC3CC(CC(C3)C1)C2` [Example 9b, 2-((-Adamantan-1-ylamino)methyl)-5-chlorophenol] was run?
The value was “A (key: (A)=31-95%; (B)=0-30%)”.

For `Cc1ncc(CNC23CC4CC(CC(C4)C2)C3)s1` [Example 16b, N-((2-methylthiazol-5-yl)methyl)adamantan-1-amine], which “S31N OOcyte Inhibition at 100 uM (%)” value is on record?
Its value is “B (key: (A)=31-95%; (B)=0-30%)”.

How did the “S31N OOcyte Inhibition at 100 uM (%)” value turn out when `COc1ccccc1-c1nc(CNC23CC4CC(CC(C4)C2)C3)no1` [Example 15b, N-((5-(2-methoxyphenyl)-1,2,4-oxadiazol-3-yl)methyl)adamantan-1-amine] was run?
Its value is “A (key: (A)=31-95%; (B)=0-30%)”.

How did the “S31N OOcyte Inhibition at 100 uM (%)” value turn out when `Cn1cc(CNC23CC4CC(CC(C4)C2)C3)nn1` [Example 18b, N-((1-methyl-1H-1,2,3-triazol-4-yl)methyl)adamantan-1-amine] was run?
Its value is “B (key: (A)=31-95%; (B)=0-30%)”.

With `c1cc2nc(CNC34CC5CC(CC(C5)C3)C4)sc2s1` [Example 77b, Adamantan-1-yl-thieno[3,2-d]thiazol-2-ylmethyl-amine] as the compound, how does the “S31N OOcyte Inhibition at 100 uM (%)” value read?
The value was “A (key: (A)=31-95%; (B)=0-30%)”.

Which “S31N OOcyte Inhibition at 100 uM (%)” value does the source give for `Nc1ncc(CNC23CC4CC(CC(C4)C2)C3)s1` [Example 19b] here?
The value was “B (key: (A)=31-95%; (B)=0-30%)”.

For `Clc1ncc(CNC23CC4CC(CC(C4)C2)C3)s1` [Example 13b, N-((2-chlorothiazol-5-yl)methyl)adamantan-1-amine], which “S31N OOcyte Inhibition at 100 uM (%)” value is on record?
Its value is “B (key: (A)=31-95%; (B)=0-30%)”.

For `O=C(CNC12CC3CC(CC(C3)C1)C2)c1cccs1` [Example 87b, 2-(adamantan-1-ylamino)-1-(thiophen-2-yl)ethanone], which “S31N OOcyte Inhibition at 100 uM (%)” value is on record?
Its value is “B (key: (A)=31-95%; (B)=0-30%)”.

For `OC12CC3CC(C1)CC(NCc1noc(-c4ccccc4)n1)(C3)C2` [Example 84b, (1s,3r,5R,7S)-3-(((5-phenyl-1,2,4-oxadiazol-3-yl)methyl)amino)adamantan-1-61], which “S31N OOcyte Inhibition at 100 uM (%)” value is on record?
The value was “A (key: (A)=31-95%; (B)=0-30%)”.

For `C(#Cc1cccs1)CNC12CC3CC(CC(C3)C1)C2` [Example 88b], which “S31N OOcyte Inhibition at 100 uM (%)” value is on record?
Its value is “A (key: (A)=31-95%; (B)=0-30%)”.

`CCOc1ccc(-c2ccc(CNC34CC5CC(CC(C5)C3)C4)s2)cc1` [Example 49b, N-((5-(4-Ethoxyphenyl)thiophen-2-yl)methyl)adamantan-1-amine] was tested. Which “S31N OOcyte Inhibition at 100 uM (%)” value did it give?
Its value is “A (key: (A)=31-95%; (B)=0-30%)”.

With `CCCSc1ncc(CNC23CC4CC(CC(C4)C2)C3)cn1` [Example 62b, N-((2-propylthiopyrimidin-5-yl)methyl)adamantan-1-amine] as the compound, how does the “S31N OOcyte Inhibition at 100 uM (%)” value read?
The value was “A (key: (A)=31-95%; (B)=0-30%)”.
